Converted amounts (≈) assume the structure as drawn. “Also recorded” adds a separate entry of the source. Where two headings read alike, the source gives them in different places.
What was measured:
[1] = system: S. aureus W4; test: Killing assay; format: cell-based, Staphylococcus aureus; conditions: 3 h incubation in 5% TSB; DIA 0.34 M, ILs 0.27 M
Method: To this end, the bacterial strains were grown in TSB until the exponential phase, and approximately 5 × 10^4 CFU/mL-contained in 10 μL-was added to 5 μL of TSB, 35 μL of water, and 50 μL of one of the following solutions corresponding to the eye drop compositions tested in vivo: Bet6 or Carn6 with 0.27 M or 0.34 M DIA, plain DIA (0.34 M) solution, or plain Bet6/plain Carn6, both at 0.27 M. All solutions were prepared in CB. The samples were incubated at 37 °C with shaking for 3 h. A sample containing 0.6% DMSO (corresponding to the highest concentration of DMSO tested) was used as a control. Following incubation, the samples were diluted 10-fold in LB and plated on tryptone soy agar (TSA, Oxoid) to determine the number of CFU. Bactericidal activity was defined as a reduction of at least 3 Log10 in the number of viable bacteria as compared to the inoculum.

[2] = Phase solubility study (apparent solubility of DIA and Rhe with ILs or HP-β-CD); format: physicochemical; conditions: 25 °C, thermodynamic from solid, read-out: saturation solubility
Method: The increase in the apparent solubility of both DIA and Rhe in the presence of the ILs was evaluated. Briefly, aqueous solutions of the ILs were prepared in the range of 0–200 mg/mL, and an excess of either DIA or Rhe was added to each vial. The samples were then incubated for 30 min at 25°C, and the undissolved drug was removed by centrifugation at […] for 15 min (Hettich Mikro 120 centrifuge). […] The drug concentration was measured by UV–Vis analysis. The DIA phase solubility study was also compared to the phase solubility study of DIA in the presence of HP-β-CD as a reference solubility/stability-enhancing excipient. […] The complexation K was calculated through Higuchi and Connors’ method, as previously reported.
The size distribution and zeta potential values of the ILs’ aggregates in aqueous solutions were evaluated by using a Zetasizer Nano ZS (Malvern) at 25 °C. The samples were prepared by adding an excess of either DIA or Rhe (5 mg/mL) to the aqueous IL solutions, incubating them for 30 min at 25 °C, and finally removing the excess drugs by centrifugation. […] In contrast, for PB solutions, the solutions were prepared in water, and […] of 100 mM pH 7 phosphate buffer was added per 1 mL of aqueous solution, directly in the cuvette, before the dynamic light scattering (DLS) analysis started. The concentrations of the solubilised drug were determined by UV–Vis analysis.

[3] = Modified Draize test (ocular irritation); format: in vivo, New Zealand albino rabbits; conditions: single eye drop instillation, rabbit; observed 0.5-6 h
Method: Male New Zealand albino rabbits weighing approximately 2.6-3 Kg, kept in standard housing conditions, were used for in vivo studies. The animals were treated as prescribed in the guidelines of the European Community Council Directive 2010/63. The animal protocol was approved by the Italian Ministry of University and Research (authorisation n. 192/2019-PR). The eye drops were prepared in CB (200 mOsm/kg). […] (588 mOsm/kg). A suspension of plain DIA (0.34 M) in CB was used as a reference sample (230 mOsm/kg). The samples' osmolality was checked using a Roebling osmometer (calibrated with NaCl 300 mOsm/kg H2O). To assess the irritation of the rabbits' eyes after instillation of the eye drops under study, a modified Draize test was performed, following the procedure previously described in [50]. This irritation test was conducted using a 0 (absence) to 3 (maximum) clinical rating scale for lachrymation, oedema, and conjunctival redness. For each of the samples under study, the test was performed on three rabbits, through a single instillation of the eye drops (50 μL) per rabbit eye, while the untreated contralateral eye was used as a control. […] An overall irritation index (Iirr) was calculated by adding the total clinical evaluation scores for each observation time. A score of 2 or 3 in any category or an Iirr greater than 4 was considered an indicator of clinically significant irritation.

[4] = Osmolality of eye drops (osmometer); format: physicochemical; conditions: eye drops in CB
Method: Male New Zealand albino rabbits weighing approximately 2.6-3 Kg, kept in standard housing conditions, were used for in vivo studies. The animals were treated as prescribed in the guidelines of the European Community Council Directive 2010/63. The animal protocol was approved by the Italian Ministry of University and Research (authorisation n. 192/2019-PR). The eye drops were prepared in CB (200 mOsm/kg). […] (588 mOsm/kg). A suspension of plain DIA (0.34 M) in CB was used as a reference sample (230 mOsm/kg). The samples' osmolality was checked using a Roebling osmometer (calibrated with NaCl 300 mOsm/kg H2O).

[5] = DIA elimination and degradation kinetics in tear fluid; format: in vivo, New Zealand albino rabbits; conditions: one drop (50 μL), 0.27 M IL, n = 10
Method: Male New Zealand albino rabbits weighing approximately 2.6–3 Kg, kept in standard housing conditions, were used for in vivo studies. The animals were treated as prescribed in the guidelines of the European Community Council Directive 2010/63. The animal protocol was approved by the Italian Ministry of University and Research (authorisation n. 192/2019-PR). The eye drops were prepared in CB (200 mOsm/kg). […] A suspension of plain DIA (0.34 M) in CB was used as a reference sample (230 mOsm/kg). The samples’ osmolality was checked using a Roebling osmometer (calibrated with NaCl 300 mOsm/kg H2O).
[…] CB was used as blank control. At predefined intervals (i.e., 2, 4, 6, 8, 10, 15, 20, 25, and 30 min from instillation), tear fluid samples were taken from the lower margin strip using 1 µL disposable glass capillaries (Microcaps, Drummond Scientific Co., USA), which were washed with 1 µL and diluted with 100 µL of CB. The diluted samples were analysed by HPLC. […] For each of the three formulations studied, elimination curves were constructed, each determined from a single eye of different rabbits.

solubility at 30 min ([2]; Bet6 solutions in citrate buffer, pH 5, aqueous with cosolvent or surfactant or cyclodextrin, in Bet6 solutions): 1350 µg/mL (≈ 3670 µM)
solubility at 30 min ([2]; aqueous Carn6 solutions, aqueous with cosolvent or surfactant or cyclodextrin, in Carn6 solutions): 680 µg/mL (≈ 1850 µM)
osmolality [4]: 230 mOsm/kg
MRT ([5]; male, New Zealand albino, topical, 50 µL (one drop) of 0.34 M DIA, DIA in rabbit tear fluid): 4.55 min
AUC (DIA concentration in tear fluid vs time) ([5]; rabbit tear fluid, 0.34 M DIA): 0.06 ± 0.002
SMILES: CC(=O)Oc1cccc2c1C(=O)c1c(OC(C)=O)cc(C(=O)O)cc1C2=O [DIA, diacerein]
bactericidal effect [1]: no evident bactericidal effect
ocular irritation signs (conjunctival redness, chemosis/oedema, secretion) [3]: modest redness of the conjunctiva and a slight conjunctival chemosis, but no secretion; also recorded: No redness, secretions, or conjunctival oedema
